Target: Carbonic anhydrase 5A, mitochondrial (Homo sapiens, UniProt P35218)
Experiment: Inhibition of human carbonic anhydrase 5A

Carbonic anhydrase 5A, mitochondrial, sequence (P35218 whole entry): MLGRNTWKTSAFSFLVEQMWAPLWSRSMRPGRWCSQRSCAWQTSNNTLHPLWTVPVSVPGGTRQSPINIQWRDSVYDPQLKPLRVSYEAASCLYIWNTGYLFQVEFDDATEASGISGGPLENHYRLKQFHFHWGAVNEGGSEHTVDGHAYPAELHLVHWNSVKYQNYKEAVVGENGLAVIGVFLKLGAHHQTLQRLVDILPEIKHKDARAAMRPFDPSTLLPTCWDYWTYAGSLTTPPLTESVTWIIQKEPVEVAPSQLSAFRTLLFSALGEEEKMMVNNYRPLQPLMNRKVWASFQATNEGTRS

Kd: 0.0254 µM
SMILES: CC1(C)O[C@@H]2[C@@H](CO[C@@]3(COS(N)(=O)=O)OC(C)(C)O[C@@H]23)O1 [TOPIRAMATE]

— ChEMBL document CHEMBL1147990 (Bioorg Med Chem, 2007)
